Experimental findings from paper PMC10610505, “Synthesis and Biological Evaluation of Some New 3-Aryl-2-thioxo-2,3-dihydroquinazolin-4(1H)-ones and 3-Aryl-2-(benzylthio)quinazolin-4(3H)-ones as Antioxidants; COX-2, LDHA, α-Glucosidase and α-Amylase Inhibitors; and Anti-Colon Carcinoma and Apoptosis-Inducing Agents” (Pharmaceuticals, 2023) are described below.

Each structure is given as a SMILES string.

For one assay, the system named is caspase-8. The assay is described as follows: Western blot of caspase-8 in cell lysates. It is filed as cell-based, human. As to conditions: 50 µg/mL, 48 h. The method, then: Furthermore, in order to confirm the implication of these compounds in the apoptotic pathways trigged by caspases, the proteins levels of caspases 8 and 9 were evaluated using Western blot analysis for the HCT-116 and LoVo carcinoma cells lysates after treatment with compounds 3a and 3f (50 µg/mL for 48 h); the untreated cells were used as a negative control.
In order to determine the levels of production of caspases 8 and 9 by the treated carcinoma cells, Western blot analysis was carried out using a FLAG® Western Detection Kit (Agilent Technologies, USA). Exponentially growing HCT-116 and LoVo cells were treated with 50 µg/mL of derivatives 3a and 3f for 48 h. After incubation, the cells were harvested and lysed using a Lysis buffer consisting of 10 mM of Tris, 100 mM of NaCl, 25 mM of ethylenediaminetetra aceticacid (EDTA), 25 mM of Ethylene glycol bis(2-aminoethyl)tetraacetic acid (EGTA), 0.1% Sodium dodecyl sulfate (SDS), 1% (v/v) Triton X-100 and 2% (v/v) NP-40 (pH 7.4), with a 1:200 protease inhibitor cocktail (Sigma-Adrich) and a 1:300 phosphatase inhibitor cocktail tablet (Roche Applied Science, Mannheim, Germany). The protein concentrations of each sample were determined calorimetrically using the Bradford method before proceeding to carry out the Western blotting. Equal amounts (20 µg) of the protein samples were mixed and boiled with SDS Loading buffer for 10 min, allowed to cool on ice and then loaded into SDS-polyacrylamide gel and separated using a Cleaver electrophoresis unit (Cleaver, Warwickshire, UK), before being transferred onto polyvinylidene fluoride (PVDF) membranes (Bio-Rad, USA) for 30 min using a Semi-dry Electroblotter (Biorad, USA) at 2.5 A and 25 V for 30 min. The membrane was blocked with 5% nonfat dry milk in TBS-T for two hours at room temperature, in order to reduce non-specific protein interactions between the membrane and the antibody. The blocked membrane was incubated overnight at 4 °C with primary antibodies (Cell Signaling Technology, Massachusetts, USA) and β-actin (Sigma). […] Briefly, the membranes were incubated for 1 min with a mixture of equal volumes of ECL solution A and ECL solution B. The chemiluminescent signals were captured using a CCD camera-based imager (Chemi Doc imager, Biorad, USA), and the bands’ intensities were then measured using ImageLab v3.0 (Bio-Rad). […] The proteins were detected using an enhanced chemiluminescence (ECL) detection system (Thermo Fischer Scientific, USA). The intensities of the bands were quantified using the NIH ImageJ software v3.0.1 (http://rsb.info.nih.gov/ij/).

The next assay relates to HCT-116 carcinoma cells. The assay is described as follows: Annexin-V-FITC/PI flow cytometry, HCT-116. It is filed as cell-based, human. As to conditions: 50 µg/mL, 48 h; for Early apoptotic cells (Annexin-V positive, PI negative): lower right quadrant; for Late apoptotic cells (Annexin-V and PI positive): upper right quadrant. Here is the method:
In order to examine the effect of compounds 3a and 3f on the apoptosis of HCT-116 and LoVo carcinoma cells, the Annexin-V-FITC probe was used and flow cytometry analyses were performed (Figure 7).
The percentages of the early apoptotic cells (Annexin-V positive and propidium iodide, PI negative) and late apoptotic cells (both Annexin-V and PI positive) were then calculated. Annexin V-PI staining was also performed to distinguish apoptotic and necrotic cell deaths.
The distribution of early and late apoptotic cells after treatment with compounds 3a and 3f was carried out using an Annexin V-FITC Apoptosis Detection Kit (BioVisionResearch Products—USA). HCT-116 and LoVo carcinoma cells were seeded in 60 mm^2 culture dishes and treated with the vehicles DMSO, and compounds 3a and 3f (50 µg/mL) for 48 h. Cells were then harvested, washed twice with PBS and resuspended in an Annexin-V binding buffer (BioVisionResearch Products—USA). Finally, the cells were stained with Annexin V-FITC and propidium iodide (PI). The fluorescent intensity of the stained cancer cells was determined using an FITC signal detector (usually FL1) and PI staining with the phycoerythrin emission signal detector (through quadrant statistics for necrotic and apoptotic cell populations).
(In general: In flow cytometry, cells or beads pass a laser one at a time.)

`O=c1c2cc(Cl)ccc2[nH]c(=S)n1-c1cccc(C(F)(F)F)c1` [Compound 3a, 6-Chloro-2-thioxo-3-(3-trifluoromethyl-phenyl)-2,3-dihydro-1H-quinazolin-4-one]: the “Increase in expressional level of caspase 8” value (“Increase in expressional level” below) was found to be 2.3 times with caspase-8 (lysates of HCT-116) and 5.1 times in the assay with caspase-8 (lysates of LoVo). Further, the “Early apoptotic cells (Annexin-V positive, PI negative)” value in the assay with HCT-116 carcinoma cells was found to be 14.6%. In addition, the “Late apoptotic cells (Annexin-V and PI positive)” value in the assay with HCT-116 carcinoma cells is reported as 6.56%.

On to `O=c1c2cc(Cl)ccc2[nH]c(=S)n1-c1ccc([N+](=O)[O-])cc1` [Compound 3f, 6-Chloro-3-(4-nitro-phenyl)-2-thioxo-2,3-dihydro-1H-quinazolin-4-one], for which, in the assay on caspase-8 (lysates of HCT-116), the “Increase in expressional level” value was 2.2 times. Also, the “Increase in expressional level” value in the assay on caspase-8 (lysates of LoVo) is recorded as 4.1 times. In the assay on HCT-116 carcinoma cells, the “Early apoptotic cells (Annexin-V positive, PI negative)” value was 9.59%; the “Late apoptotic cells (Annexin-V and PI positive)” value was 5.32%.
